Test results reported in EP4653437A2 (Innovo Therapeutics Inc., priority 2023, dated 2024).

Experiments:
human 15-PGDH = molecular target: T1, human 15-PGDH (Homo sapiens, UniProt P15428); assay: Evaluation of 15-PGDH inhibitory activity (fluorescence enzyme assay, NAD+/PGE2); assay type: biochemical; details: human 15-PGDH enzyme, fluorescence Vmax
T1 construct: purchased R&D System 5660-DH
T1 sequence (P15428 1-266): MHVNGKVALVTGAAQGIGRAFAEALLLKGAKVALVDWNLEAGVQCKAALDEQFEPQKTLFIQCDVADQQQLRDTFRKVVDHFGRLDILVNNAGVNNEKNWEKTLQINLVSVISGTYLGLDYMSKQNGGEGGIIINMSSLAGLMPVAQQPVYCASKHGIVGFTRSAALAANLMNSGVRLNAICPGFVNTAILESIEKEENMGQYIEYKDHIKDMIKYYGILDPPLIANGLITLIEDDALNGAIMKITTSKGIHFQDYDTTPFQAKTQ
Method: 15-PGDH inhibition activity of Example compounds was measured as follows. 6.7 ng of human 15-PGDH (R&D System# 5660-DH) enzyme (10 µL) was added to a black 96 well plate, 60 µL of buffer (50 mM Tris-HCl, pH 7.5, 0.01% Tween 20) was added, and 10 µL of 200 µM β-Nicotinamide adenine dinucleotide sodium salt (Sigma, Cat# N0632-5G) was added. 10 µL of (10x) compound solution in DMSO was added and reacted for 10 minutes at room temperature.

A549 cells = assay: Measurement of PGE2-increasing activity in A549 cells (IL-1β stimulated, PGE2 quantified in supernatant); assay type: cell-based; details: Homo sapiens, 24 h; concentration of 1 µM of each compound; IL-1β treated A549 cells; read-out: Increased PGE2 production in A549 cells
Method: A549 cells were prepared at a cell number of 1 x 10^5/mL in F12K medium containing 10% FBS (Fetal Bovine Serum), and 2 x 10^4/200 µL was added to each well of a 96-well cell culture plate, and then cultured in an incubator with 5% CO2 at 37 °C for 24 hours. After the culture was complete and all F12K medium was removed, all wells were washed once with 100 µL of PBS, and treated with 160 µL of serum-free F12K medium. Then, 20 µL of IL-1β diluted 10-fold to a concentration of 1 ng/mL in serum-free F12K medium was treated to wells to be treated with IL-1β, and 20 µL of serum-free F12K medium was treated to wells not treated with IL-1β. For the wells to be treated with the compound, 20 µL of the compound dissolved in 100% DMSO was diluted to a concentration 10 times of the desired compound concentration in serum-free F12K medium so that the final DMSO concentration treated to the cells was 0.1%, and for the wells not to be treated with the compound, 20 µL of DMSO diluted in serum-free F12K medium so that the final DMSO concentration treated to the cells was 0.1% was treated. In order to confirm the increase or decrease in the secretion amount of PGE2 in the supernatant collected after culturing for 24 hours in an incubator with 5% CO2 at 37 °C, PGE2 was quantified using the Prostaglandin E2 Parameter (SKGE004B).

| Structure (SMILES) | IC50 (human 15-PGDH) [nM] | fold induction at 1 µM (A549 cells) |
| --- | --- | --- |
| COc1ccc(-c2ccc3[nH]c(C(=O)N4CCCCC4)cc3n2)cc1 [Example 179, (5-(4-methoxyphenyl)-1H-pyrrolo[3,2-b]pyridin-2-yl)(piperidin-1-yl)methanone] | 100 to 1000 |  |
| CN1CCc2cc(-c3cccc4c(C(=O)N5CCCCC5)cnn34)ccc2C1=O [Example 137, 2-methyl-6-(3-(piperidine-1-carbonyl)pyrazolo[1,5-a]pyridin-7-yl)-3,4-dihydroisoquinolin-1(2H)-one] | ≤ 100 |  |
| CC(=O)Nc1ccc(-c2cccc3c(C(=O)N4CCCCC4)cnn23)cc1 [Example 97, N-(4-(3-(piperidine-1-carbonyl)pyrazolo[1,5-a]pyridin-7-yl)phenyl)acetamide] | ≤ 100 |  |
| COC(=O)c1ccc(-c2cccc3c(C(=O)N4CCCCC4)cnn23)cc1 [Example 11, methyl 4-(3-(piperidine-1-carbonyl)pyrazolo[1,5-a]pyridin-7-yl)benzoate] | ≤ 100 |  |
| CC(C)(C)OC(=O)N1CCN(C(=O)c2cccc(-c3cccc4c(C(=O)N5CCCCC5)cnn34)c2)CC1 [Example 35, tert-butyl 4-(3-(3-(piperidine-1-carbonyl)pyrazolo[1,5-a]pyridin-7-yl)benzoyl)piperazine-1-carboxylate] | ≤ 100 |  |
| Cc1nn(C)c(C)c1S(=O)(=O)Nc1cccc2c(C(=O)N3CCCCC3)cnn12 [Example 240, 1,3,5-trimethyl-N-[3-(piperidine-1-carbonyl)pyrazolo[1,5-a]pyridin-7-yl]pyrazole-4-sulfonamide] | > 1000 |  |
| Cc1cc(-c2cccc(Cl)c2)c2ncc(C(=O)N3CCCCC3)n2c1 [Example 165, (8-(3-chlorophenyl)-6-methylimidazo[1,2-a]pyridin-3-yl)(piperidin-1-yl)methanone] | 100 to 1000 |  |
| O=C(Cc1cccnc1)Nc1ccc(-c2cccc3c(C(=O)N4CCCCC4)cnn23)cn1 [Example 106, N-(5-(3-(piperidine-1-carbonyl)pyrazolo[1,5-a]pyridin-7-yl)pyridin-2-yl)-2-(pyridin-3-yl)acetamide] | ≤ 100 |  |
| O=C(c1cnc2c(-c3cccc(Cl)c3)cc(F)cn12)N1CCCCC1 [Example 167, (8-(3-chlorophenyl)-6-fluoroimidazo[1,2-a]pyridin-3-yl)(piperidin-1-yl)methanone] | ≤ 100 |  |
| O=C(c1cc2nc(-c3ccc(Cl)cc3)ccc2[nH]1)N1CCCCC1 [Example 180, (5-(4-chlorophenyl)-1H-pyrrolo[3,2-b]pyridin-2-yl)(piperidin-1-yl)methanone] | 100 to 1000 |  |
| O=C(c1cnn2c(-c3ccc4cn[nH]c4c3)cccc12)N1CCCCC1 [Example 125, (7-(1H-indazol-6-yl)pyrazolo[1,5-a]pyridin-3-yl)(piperidin-1-yl)methanone] | ≤ 100 |  |
| O=C(c1cc2nc(N3Cc4ccccc4C3=O)ccc2[nH]1)N1CCCCC1 [Example 191, 2-(2-(piperidine-1-carbonyl)-1H-pyrrolo[3,2-b]pyridin-5-yl)isoindolin-1-one] | 100 to 1000 |  |
| O=C(c1cnn2c(-c3ccccc3)cccc12)N1CCCCC1 [Example 1] | ≤ 100 |  |
| O=C(Nc1cccnc1)c1ccc(-c2cccc3c(C(=O)N4CCCCC4)cnn23)cc1 [Example 71, 4-(3-(piperidine-1-carbonyl)pyrazolo[1,5-a]pyridin-7-yl)-N-(pyridin-3-yl)benzamide] | ≤ 100 |  |
| O=C(c1cnn2c(-c3ccc([N+](=O)[O-])cc3)cccc12)N1CCCCC1 [Example 13, (7-(4-nitrophenyl)pyrazolo[1,5-a]pyridin-3-yl)(piperidin-1-yl)methanone] | ≤ 100 |  |
| COc1ccc(-c2ccc3[nH]c(C(=O)N4CCCCC4)cc3n2)cc1OC [Example 181, (5-(3,4-dimethoxyphenyl)-1H-pyrrolo[3,2-b]pyridin-2-yl)(piperidin-1-yl)methanone] | 100 to 1000 |  |
| O=C(c1cncc(-c2cccc3c(C(=O)N4CCCCC4)cnn23)c1)N1CC(F)(F)C1 [Example 44, (3,3-difluoroazetidin-1-yl)(5-(3-(piperidine-1-carbonyl)pyrazolo[1,5-a]pyridin-7-yl)pyridin-3-yl)methanone] | ≤ 100 |  |
| O=C(c1cc2nc(-c3ccc4c(c3)OCCO4)ccc2[nH]1)N1CCCCC1 [Example 178, (5-(2,3-dihydrobenzo[b][1,4]dioxin-6-yl)-1H-pyrrolo[3,2-b]pyridin-2-yl)(piperidin-1-yl)methanone] | 100 to 1000 |  |
| O=C(c1cnn2c(-c3ccc4ccccc4c3)cccc12)N1CCCCC1 [Example 129, (7-(naphthalen-2-yl)pyrazolo[1,5-a]pyridin-3-yl)(piperidin-1-yl)methanone] | ≤ 100 |  |
| O=C(c1cnn2c(-c3cccc([N+](=O)[O-])c3)cccc12)N1CCCCC1 [Example 5, (7-(3-nitrophenyl)pyrazolo[1,5-a]pyridin-3-yl)(piperidin-1-yl)methanone] | ≤ 100 |  |
| O=C(c1cc2nc(-c3ccc(O)c(Cl)c3)ccc2[nH]1)N1CCCCC1 [Example 186, (5-(3-chloro-4-hydroxyphenyl)-1H-pyrrolo[3,2-b]pyridin-2-yl)(piperidin-1-yl)methanone] | 100 to 1000 |  |

Continued, in another order:

| IC50 (human 15-PGDH) [nM] | Structure (SMILES) | fold induction at 1 µM (A549 cells) |
| --- | --- | --- |
| ≤ 100 | N#Cc1ccc(-c2cccc3c(C(=O)N4CCCCC4)cnn23)cc1F [Example 22, 2-fluoro-4-(3-(piperidine-1-carbonyl)pyrazolo[1,5-a]pyridin-7-yl)benzonitrile] | > 1.5 |
| ≤ 100 | O=C(c1cnn2c(-c3ccc(N4CCC5(CCC5)CC4)nc3)cccc12)N1CCCCC1 [Example 222, (7-(6-(7-azaspiro[3.5]nonan-7-yl)pyridin-3-yl)pyrazolo[1,5-a]pyridin-3-yl)(piperidin-1-yl)methanone] | > 1.5 |
| ≤ 100 | O=C(Nc1ncc(-c2cccc3c(C(=O)N4CCCCC4)cnn23)cc1Cl)c1cccnc1 [Example 301, N-(3-chloro-5-(3-(piperidine-1-carbonyl)pyrazolo[1,5-a]pyridin-7-yl)pyridin-2-yl)nicotinamide] | > 1.5 |
| ≤ 100 | O=C(Nc1cccc(-c2cccc3c(C(=O)N4CCCCC4)cnn23)c1)C1CC1 [Example 94, N-(3-(3-(piperidine-1-carbonyl)pyrazolo[1,5-a]pyridin-7-yl)phenyl)cyclopropanecarboxamide] | > 1.5 |
| ≤ 100 | O=C(c1cnn2c(-c3cc(-c4cncc(F)c4)nc(N4CCOCC4)c3)cccc12)N1CCCCC1 [Example 376, (7-(5'-fluoro-6-morpholino-[2,3'-bipyridin]-4-yl)pyrazolo[1,5-a]pyridin-3-yl)(piperidin-1-yl)methanone] | > 1.5 |
| ≤ 100 | O=C(c1cnn2c(-c3ccc(Br)cc3)cccc12)N1CCCCC1 [Example 292, (7-(4-bromophenyl)pyrazolo[1,5-a]pyridin-3-yl)(piperidin-1-yl)methanone] | > 1.5 |
| ≤ 100 | O=C(Nc1cccc(-c2cccc3c(C(=O)N4CCCCC4)cnn23)c1)C1CCCCC1 [Example 96, N-(3-(3-(piperidine-1-carbonyl)pyrazolo[1,5-a]pyridin-7-yl)phenyl)cyclohexanecarboxamide] | < 1.5 |
| ≤ 100 | O=C1NCc2ccc(-c3cccc4c(C(=O)N5CCCC(F)C5)cnn34)cc21 (stereo not shown) [Example 378, 6-(3-(3-fluoropiperidine-1-carbonyl)pyrazolo[1,5-a]pyridin-7-yl)isoindolin-1-one] | > 1.5 |
| ≤ 100 | CN1CCC(NC(=O)c2ccc(-c3cccc4c(C(=O)N5CCCCC5)cnn34)cn2)CC1 [Example 81, N-(1-methylpiperidin-4-yl)-5-(3-(piperidine-1-carbonyl)pyrazolo [1,5-a]pyridin-7-yl)picolinamide] | > 1.5 |
| ≤ 100 | O=C(Cc1cccnc1)Nc1ncc(-c2cccc3c(C(=O)N4CCCCC4)cnn23)cc1Cl [Example 311, N-(3-chloro-5-(3-(piperidine-1-carbonyl)pyrazolo[1,5-a]pyridin-7-yl)pyridin-2-yl)-2-(pyridin-3-yl)acetamide] | > 1.5 |
| ≤ 100 | O=C(c1cnn2c(-c3ccc4c(=O)[nH]ccc4c3)cccc12)N1CCCCC1 [Example 138, 6-(3-(piperidine-1-carbonyl)pyrazolo[1,5-a]pyridin-7-yl)isoquinolin-1(2H)-one] | > 1.5 |
